Test results reported in ChEMBL document CHEMBL1201862, “PubChem BioAssay data set” (2004).
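Where inhibition never reached the appropriate level, the endpoint shown equals the highest concentration tested. Otherwise, values were interpolated linearly from a five-concentration, 48-hour dose response in 96-well plates. Here, GI50 denotes the concentration required for 50% inhibition of growth.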 Activity calls are given as the source filed them. No stated cut-off is given here; in the data, active = GI50 up to about 1.1 µM and inactive = higher. Where a SMILES comes first, the peptide text is derived from it.

Assays:
Test in all cases: growth of human tumour cells (NCI), 48 h
[1] = system: A549
[2] = system: HOP-92
[3] = system: OVCAR-4
[4] = system: UACC-257
[5] = system: UACC-62
[6] = system: OVCAR-5
[7] = system: U-251
[8] = system: RXF 393
[9] = system: HL-60
[10] = system: SW-620
[11] = system: SNB-19
[12] = system: LOX IMVI
[13] = system: KM-20L2
[14] = system: DMS-114
[15] = system: HOP-18
[16] = system: NCI-H226
[17] = system: SF-295
[18] = system: NCI/ADR-RES
[19] = system: CAKI-1
[20] = system: Malme-3M

Cc1cc(O)nc(NN2C(Cl)C(=O)C2c2ccc([N+](=O)[O-])cc2)n1 (stereo not drawn)
GI50 [1]: 14.7 µM (inactive) | GI50 [2]: 13.7 µM (inactive) | GI50 [3]: 13.7 µM (inactive) | GI50 [4]: 16 µM (inactive) | GI50 [5]: 3.31 µM (inactive) | GI50 [6]: 25.1 µM (inactive) | GI50 [7]: 13.8 µM (inactive) | GI50 [8]: 0.76 µM (active) | GI50 [9]: 4.12 µM (inactive) | GI50 [10]: 20.5 µM (inactive) | GI50 [11]: 15.3 µM (inactive) | GI50 [12]: 5.96 µM (inactive) | GI50 [13]: 17.1 µM (inactive) | GI50 [14]: 8.07 µM (inactive) | GI50 [15]: 11.3 µM (inactive)

CCOc1ccc(/C=C2\N=C(c3ccccc3)OC2=O)cc1
GI50 [1]: > 100 µM (inactive) | GI50 [16]: > 100 µM (inactive) | GI50 [2]: > 100 µM (inactive) | GI50 [3]: > 100 µM (inactive) | GI50 [4]: > 100 µM (inactive) | GI50 [5]: > 100 µM (inactive) | GI50 [6]: > 100 µM (inactive) | GI50 [7]: > 100 µM (inactive) | GI50 [8]: > 100 µM (inactive) | GI50 [9]: > 100 µM (inactive) | GI50 [10]: > 100 µM (inactive) | GI50 [11]: > 100 µM (inactive) | GI50 [17]: > 100 µM (inactive) | GI50 [18]: > 100 µM (inactive)

CCCCN1C(=O)NC(Cc2ccccc2)C1=O (stereo not drawn)
GI50 [1]: > 100 µM (inactive) | GI50 [16]: > 100 µM (inactive) | GI50 [4]: > 100 µM (inactive) | GI50 [6]: > 100 µM (inactive) | GI50 [7]: > 100 µM (inactive) | GI50 [8]: > 100 µM (inactive) | GI50 [19]: > 100 µM (inactive) | GI50 [10]: > 100 µM (inactive) | GI50 [11]: > 100 µM (inactive) | GI50 [12]: > 100 µM (inactive) | GI50 [17]: > 100 µM (inactive) | GI50 [20]: > 100 µM (inactive) | GI50 [13]: > 100 µM (inactive) | GI50 [14]: > 100 µM (inactive) | GI50 [15]: > 100 µM (inactive)

NC(=O)C1CCCN1C(=O)C(N)Cc1ccccc1 (stereo not drawn) (H-Phe-Pro-NH2; configuration not given here)
GI50 [1]: > 100 µM (inactive) | GI50 [3]: > 100 µM (inactive) | GI50 [4]: > 10 µM (inactive) | GI50 [5]: > 100 µM (inactive) | GI50 [6]: > 100 µM (inactive) | GI50 [7]: > 100 µM (inactive) | GI50 [19]: > 100 µM (inactive) | GI50 [9]: > 100 µM (inactive) | GI50 [10]: > 100 µM (inactive) | GI50 [11]: > 100 µM (inactive) | GI50 [12]: > 100 µM (inactive) | GI50 [17]: > 100 µM (inactive) | GI50 [20]: > 100 µM (inactive) | GI50 [18]: > 100 µM (inactive)

COC(=O)C[C@](O)(CCC(C)(C)O)C(=O)O[C@@H]1C(OC)=C[C@]23CCCN2CCc2cc4c(cc2[C@H]13)OCO4 [HARRINGTONINE]
GI50 [1]: 0.0579 µM (active) | GI50 [16]: 0.0306 µM (active) | GI50 [2]: 0.164 µM (active) | GI50 [3]: 0.0785 µM (active) | GI50 [4]: 0.158 µM (active) | GI50 [5]: 0.23 µM (active) | GI50 [6]: 0.233 µM (active) | GI50 [7]: 0.0515 µM (active) | GI50 [8]: 0.103 µM (active) | GI50 [19]: 0.193 µM (active) | GI50 [9]: 0.0403 µM (active) | GI50 [10]: 0.119 µM (active) | GI50 [11]: 0.0509 µM (active) | GI50 [12]: 0.047 µM (active) | GI50 [17]: 0.186 µM (active) | GI50 [20]: 0.0284 µM (active) | GI50 [13]: 0.0843 µM (active) | GI50 [14]: 0.0152 µM (active) | GI50 [15]: 0.229 µM (active) | GI50 [18]: 7.74 µM (inactive)
